Reference: PubChem BioAssay AID1224866 (Xiaojiang Lab, Kunming Institute of Botany, CAS, 2016)

Columns and labels:
Assay in all cases: TFEB nuclear translocation in HeLa cells, imaging, EGFP fusions (AID 1224866)
[1] = system: HeLa TFEB-EGFP nuclear translocation, imaging; conditions: stronger effect = higher value; dose or concentration not given here
[2] = target: Transcription factor E3 (Homo sapiens) (UniProt P19532); conditions: HeLa; measured here: TFE3 nuclear translocation; stronger effect = higher value; dose or concentration not given here
[3] = target: Zinc finger protein with KRAB and SCAN domains 3 (Homo sapiens) (UniProt Q9BRR0); conditions: HeLa EGFP-ZKSCAN3 cytoplasmic translocation; stronger effect = higher value; dose or concentration not given here

| SMILES | cells with nuclear TFEB-EGFP [1] [%] | cells with nuclear EGFP-TFE3 [2] [%] | cells with cytosolic EGFP-ZKSCAN3 [3] [%] |
| --- | --- | --- | --- |
| CCCCCCCCCCCCCCCC(=O)OCC1=C[C@H]2C(=O)[C@]3(C=C(C)[C@H](O)[C@@]3(O)[C@@H]1O)[C@H](C)C[C@@H]1[C@H]2C1(C)C | 66.6 | 5.1 | 74.3 |
| CCCCCCCCCCCCCC(=O)OCC1=C[C@H]2C(=O)[C@]3(C=C(C)[C@H](O)[C@@]3(O)[C@@H]1O)[C@H](C)C[C@@H]1[C@H]2C1(C)C | 67.2 | 4.8 | 76.4 |
| CCCCCCCCCCCC(=O)O[C@@]12C[C@@H](C)[C@]34C=C(C)[C@H](OC(=O)C(C)C(C)C)[C@@]3(O)[C@H](O)C(CO)=C[C@@H](C4=O)[C@@H]1C2(C)C (stereo not given in full) | 66.1 | 4.3 | 69.7 |
| CCCCCCCCCCCC(=O)O[C@@]12C[C@@H](C)[C@]34C=C(C)[C@H](O)[C@@]3(O)[C@H](O)C(COC(=O)C(C)C(C)C)=C[C@@H](C4=O)[C@@H]1C2(C)C (stereo not given in full) | 62 | 3.9 | 67.4 |
| CC1=C[C@H]2C(=O)[C@]3(C=C(C)[C@H](O)[C@@]3(O)[C@@H]1OC(=O)c1ccccc1)[C@H](C)C[C@@H]1[C@H]2C1(C)C | 81.3 | 4.2 | 79.2 |
| CC(=O)O[C@@H]1C(C)=C[C@H]2C(=O)[C@]3(C=C(C)[C@H](OC(=O)c4ccccc4)[C@@]13O)[C@H](C)C[C@@H]1[C@H]2C1(C)C | 74.5 | 4.6 | 74.1 |
| CC=C(C)C(=O)O[C@@H]1C(C)=C[C@H]2C(=O)[C@]3(C=C(C)[C@H](O)[C@@]13O)[C@H](C)C[C@@H]1[C@H]2C1(C)C | 85.6 | 5.2 | 83.6 |
| CC=C(C)C(=O)O[C@@H]1C(C)=C[C@H]2C(=O)[C@]3(C=C(C)[C@H](OC(C)=O)[C@@]13O)[C@H](C)C[C@@H]1[C@H]2C1(C)C | 70.3 | 4.2 | 75 |
| CC1=C[C@H]2C(=O)[C@]3(C=C(C)[C@H](OC(=O)c4ccccc4)[C@@]3(O)[C@@H]1O)[C@H](C)C[C@@H]1[C@H]2C1(C)C | 65.8 | 4 | 68.4 |
| CC=C(C)C(=O)O[C@H]1C(C)=C[C@]23C(=O)[C@H](C=C(C)[C@@H](O)[C@]12O)[C@H]1[C@@H](C[C@H]3C)C1(C)C | 80.8 | 5.4 | 76.9 |
